Test results as given in patent US9090599B2, “Heteroarylmethyl amides” (Hoffman-La Roche Inc., priority 2010, dated 2015).
Like-named read-outs stand apart in the source and are kept apart here.

How the values were obtained:
[1] = molecular target: T1, human CB1 receptor (Homo sapiens, UniProt P21554); assay: CB1 receptor affinity, [3H]-CP-55,940 displacement, HEK cell membranes; assay type: binding; conditions: read-out: CB1 receptor affinity [% inhibition @ 10 μM]
T1 construct: expressed in transfected cells; host or cells: human embryonic kidney (HEK) cells, Semliki Forest Virus system, membrane preparations
Description: (§1) The affinity of the compounds of the invention for cannabinoid receptors was determined using membrane preparations of human embryonic kidney (HEK) cells in which the human CB1 receptor is transiently transfected using a Semliki Forest Virus system in conjunction with [3H]-CP-55,940 as radioligand. After incubation of freshly prepared cell membrane preparation with the [^3H]-ligand, with or without addition of compounds of the invention, separation of bound and free ligand was performed by filtration over glass fiber filters. Radioactivity on the filter was measured by scintillation counting.
(§2) The ability of the compounds to displace the radioligand [^3H]-CP-55,940 was measured at a concentration of 10 μM and values provided as [% inhibition @ 10 μM] both for the CB 1 and CB2 receptor assay, The lower % inhibition is, the lower the likelihood of side effects based on CB1 or CB2 receptor inhibition is.

[2] = molecular target: T2, human CB2 receptor (Homo sapiens, UniProt P34972); assay: CB2 receptor affinity, [3H]-CP-55,940 displacement, HEK cell membranes; assay type: binding; conditions: 10 μM compound, radioligand [3H]-CP-55,940
T2 construct: expressed in transfected cells; host or cells: human embryonic kidney (HEK) cells, Semliki Forest Virus system, membrane preparations
Description: as §1, with “cannabinoid CB2” for “cannabinoid”, “CB2” for “CB1”, “[^3H]-CP-55,940” for “[3H]-CP-55,940”
as §2

[3] = 10 μM compound, radioligand [3H]-CP-55,940

T2 sequence (P34972 whole entry): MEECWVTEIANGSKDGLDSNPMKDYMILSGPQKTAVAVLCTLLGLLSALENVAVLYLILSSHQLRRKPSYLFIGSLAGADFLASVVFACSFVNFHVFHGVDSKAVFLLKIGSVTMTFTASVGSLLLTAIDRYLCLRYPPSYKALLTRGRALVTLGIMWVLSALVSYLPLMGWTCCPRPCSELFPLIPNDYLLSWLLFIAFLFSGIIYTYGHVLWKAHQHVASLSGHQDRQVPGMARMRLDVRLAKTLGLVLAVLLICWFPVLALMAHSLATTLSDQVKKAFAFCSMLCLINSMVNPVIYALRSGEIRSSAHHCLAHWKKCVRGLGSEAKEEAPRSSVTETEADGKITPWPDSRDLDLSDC
T1 sequence (P21554 whole entry): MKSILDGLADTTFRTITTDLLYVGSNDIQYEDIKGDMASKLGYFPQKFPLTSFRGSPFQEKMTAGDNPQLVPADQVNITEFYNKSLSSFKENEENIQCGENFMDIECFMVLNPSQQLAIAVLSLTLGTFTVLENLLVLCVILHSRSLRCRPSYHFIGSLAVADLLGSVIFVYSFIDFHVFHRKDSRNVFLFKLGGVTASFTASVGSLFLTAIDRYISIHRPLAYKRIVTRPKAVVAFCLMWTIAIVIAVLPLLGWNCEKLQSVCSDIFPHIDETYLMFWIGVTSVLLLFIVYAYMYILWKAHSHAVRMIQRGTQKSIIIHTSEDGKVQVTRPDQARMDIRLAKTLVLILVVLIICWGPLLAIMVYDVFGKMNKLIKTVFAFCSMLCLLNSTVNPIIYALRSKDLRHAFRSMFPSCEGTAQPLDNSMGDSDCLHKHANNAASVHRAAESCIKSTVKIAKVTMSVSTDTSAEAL

Structure (SMILES)	inhibition at 10 µM [1, 3] [%]	inhibition at 10 µM [2] [%]	inhibition at 10 µM [1] [%]
O=C(NCc1ccccn1)c1cnc(OC2CCC2)c(-c2ccc(Cl)cc2)c1 [Example 101, 5-(4-chlorophenyl)-6-cyclobutoxy-N-(pyridin-2-ylmethyl)nicotinamide]	45	37	
COc1cc(CNC(=O)c2cc(-c3ccc(C)c(C)c3)c(OCC(F)(F)F)cn2)on1 [Example 75, 4-(3,4-dimethylphenyl)-N-((3-methoxyisoxazol-5-yl)methyl)-5-(2,2,2-trifluoroethoxy)picolinamide]	19	34	
CC(C)c1cc(CNC(=O)c2ccc(OCC3CC3)c(-c3ccc(Cl)cc3)n2)no1 [Example 55, 6-(4-chloro-phenyl)-5-cyclopropylmethoxy-pyridine-2-carboxylic acid (5-isopropyl-isoxazol-3-ylmethyl)-amide]	44	33	
CC(C)c1nc(CNC(=O)c2cnc(OCC3CC3)c(-c3ccc(Cl)cc3)c2)no1 [Example 51]	47	2	
CC(C)c1cc(CNC(=O)c2cc(-c3ccc(Cl)cc3)c(OCC(F)(F)F)nn2)on1 [Example 43, 5-(4-chloro-phenyl)-6-(2,2,2-trifluoro-ethoxy)-pyridazine-3-carboxylic acid (3-isopropyl-isoxazol-5-ylmethyl)-amide]	37	14	
Cn1cc(Cl)c(CNC(=O)c2cnc(OCC(F)(F)F)c(-c3ccc(Cl)cc3)c2)n1 [Example 26, N-(4-Chloro-1-methyl-1H-pyrazol-3-ylmethyl)-5-(4-chloro-phenyl)-6-(2,2,2-trifluoro-ethoxy)-nicotinamide]	40	22	
O=C(NCc1noc(C2CC2)n1)c1cc(-c2ccc(Cl)cc2)c(OCC(F)(F)F)nn1 [Example 41, 5-(4-chloro-phenyl)-6-(2,2,2-trifluoro-ethoxy)-pyridazine-3-carboxylic acid (5-cyclopropyl-[1,2,4]oxadiazol-3-ylmethyl)-amide]	23	19	
C[C@H](Oc1cnc(C(=O)NCc2cc(C(F)(F)F)no2)nc1-c1ccc(Cl)cc1)C(F)(F)F [Example 68, (S)-4-(4-chlorophenyl)-N-((3-(trifluoromethyl)isoxazol-5-yl)methyl)-5-(1,1,1-trifluoropropan-2-yloxy)pyrimidine-2-carboxamide]	45	3	
O=C(NCc1cc(C(F)(F)F)on1)c1ccc(OCC2CC2)c(-c2ccc(Cl)cc2)n1 [Example 58, 6-(4-chloro-phenyl)-5-cyclopropylmethoxy-pyridine-2-carboxylic acid (5-trifluoromethyl-isoxazol-3-ylmethyl)-amide]	42	19	
O=C(NCc1nc(C2CC2)no1)c1ncc(OCC2CC2)c(-c2ccc(Cl)cc2)n1 [Example 17, 4-(4-chloro-phenyl)-5-cyclopropylmethoxy-pyrimidine-2-carboxylic acid (3-cyclopropyl-[1,2,4]oxadiazol-5-ylmethyl)-amide]	48	45	
CC(C)c1nc(CNC(=O)c2ccc(OCC3CC3)c(-c3ccc(Cl)cc3)n2)cs1 [Example 52, 6-(4-chloro-phenyl)-5-cyclopropylmethoxy-pyridine-2-carboxylic acid (2-isopropyl-thiazol-4-ylmethyl)-amide]	38	43	
O=C(NCc1nc(C(F)(F)F)no1)c1ncc(OCC2CC2)c(-c2ccc(Cl)cc2)n1 [Example 21, 4-(4-chloro-phenyl)-5-cyclopropylmethoxy-pyrimidine-2-carboxylic acid (3-trifluoromethyl-[1,2,4]oxadiazol-5-ylmethyl)-amide]	44	35	
O=C(NCc1cc(C(F)(F)F)no1)c1ncc(OCC2CC2)c(-c2ccc(Cl)cc2)n1 [Example 62, 4-(4-chloro-phenyl)-5-cyclopropylmethoxy-pyrimidine-2-carboxylic acid (3-trifluoromethyl-isoxazol-5-ylmethyl)-amide]	44	24	
CC(C)c1noc(CNC(=O)c2cc(-c3ccc(Cl)cc3)c(OCC(F)(F)F)cn2)n1 [Example 40, 4-(4-chlorophenyl)-N-((3-isopropyl-1,2,4-oxadiazol-5-yl)methyl)-5-(2,2,2-trifluoroethoxy)picolinamide]	29	19	
CC(C)(C)c1nc(CNC(=O)c2ccc(OCC3CC3)c(-c3ccc(Cl)cc3)n2)cs1 [Example 63, 6-(4-chloro-phenyl)-5-cyclopropylmethoxy-pyridine-2-carboxylic acid (2-tert-butyl-thiazol-4-ylmethyl)-amide]	36	38	
C[C@H](Oc1ncc(C(=O)NCc2ccccn2)nc1-c1ccc(Cl)cc1)C(F)(F)F [Example 69, (S)-6-(4-chlorophenyl)-N-(pyridin-2-ylmethyl)-5-(1,1,1-trifluoropropan-2-yloxy)pyrazine-2-carboxamide]	34	40	
O=C(NCc1cc(C2CC2)on1)c1cnc(OCC2CC2)c(-c2ccc(Cl)cc2)c1 [Example 30, 5-(4-chloro-phenyl)-N-(5-cyclopropyl-isoxazol-3-ylmethyl)-6-cyclopropyl-methoxy-nicotinamide]	48	38	
O=C(NCc1cc(C(F)(F)F)no1)c1cnc(OCC(F)(F)F)c(-c2ccc(Cl)cc2)c1 [Example 59, 5-(4-chloro-phenyl)-6-(2,2,2-trifluoro-ethoxy)-N-(3-trifluoromethyl-isoxazol-5-ylmethyl)-nicotinamide]		-2	49

Continued, in another order:

inhibition at 10 µM [1, 3] [%]	inhibition at 10 µM [2] [%]	Structure (SMILES)	inhibition at 10 µM [1] [%]
39	9	O=C(NCc1nc(C(F)(F)F)no1)c1cnc(OC[C@H]2CCOC2)c(-c2ccc(Cl)cc2)c1 (stereo in doubt) [Example 104]	
50	14	Cc1noc(CNC(=O)c2cnc(OCC(F)(F)F)c(-c3ccc(Cl)cc3)c2)n1 [Example 90, 5-(4-chlorophenyl)-N-((3-methyl-1,2,4-oxadiazol-5-yl)methyl)-6-(2,2,2-trifluoroethoxy)nicotinamide]	
38	-5	O=C(NCc1cc(C(F)(F)F)on1)c1cnc(OCC(F)(F)F)c(-c2ccc(Cl)cc2)c1 [Example 50, 5-(4-chloro-phenyl)-6-(2,2,2-trifluoro-ethoxy)-N-(5-trifluoromethyl-isoxazol-3-ylmethyl)-nicotinamide]	
7	8	O=C(NCc1nc(C(F)(F)F)no1)c1cnc(OCC(F)(F)F)c(-c2ccc3c(c2)CCC3)c1 [Example 85, 5-(2,3-dihydro-1H-inden-5-yl)-6-(2,2,2-trifluoroethoxy)-N-((3-(trifluoromethyl)-1,2,4-oxadiazol-5-yl)methyl)nicotinamide]	
49	18	O=C(NCc1cc(C(F)(F)F)on1)c1cnc(OCC2CC2)c(-c2ccc(Cl)cc2)c1 [Example 66, 5-(4-chloro-phenyl)-6-cyclopropylmethoxy-N-(5-trifluoromethyl-isoxazol-3-ylmethyl)-nicotinamide]	
33	34	O=C(NCc1nc(C(F)(F)F)no1)c1cc(-c2ccc(Cl)cc2)c(OCC2CC2)nn1 [Example 20, 5-(4-chloro-phenyl)-6-cyclopropylmethoxy-pyridazine-3-carboxylic acid (3-trifluoromethyl-[1,2,4]oxadiazol-5-ylmethyl)-amide]	
37	9	COc1cc(CNC(=O)c2cnc(OCC(F)(F)F)c(-c3ccc(Cl)c(F)c3)c2)on1 [Example 86, 5-(4-chloro-3-fluorophenyl)-N-((3-methoxyisoxazol-5-yl)methyl)-6-(2,2,2-trifluoroethoxy)nicotinamide]	
47	17	O=C(NCc1nc(C(F)(F)F)no1)c1cnc(OC[C@@H]2CCOC2)c(-c2ccc(Cl)cc2)c1 (stereo in doubt) [Example 105, 5-(4-Chloro-phenyl)-6-[(RS)-1-(tetrahydro-furan-3-yl)methoxy]-N-(3-trifluoromethyl-[1,2,4]oxadiazol-5-ylmethyl)-nicotinamide]	
45	3	N#Cc1ccc(-c2cc(C(=O)NCc3nc(C(F)(F)F)no3)cnc2OCC(F)(F)F)cc1 [Example 87, 5-(4-cyanophenyl)-6-(2,2,2-trifluoroethoxy)-N-((3-(trifluoromethyl)-1,2,4-oxadiazol-5-yl)methyl)nicotinamide]	
26	-4	O=C(NCc1nc(C(F)(F)F)no1)c1cnc(OCCO)c(-c2ccc(Cl)cc2)c1 [Example 102, 5-(4-chlorophenyl)-6-(2-hydroxyethoxy)-N-((3-(trifluoromethyl)-1,2,4-oxadiazol-5-yl)methyl)nicotinamide]	
